In ChEMBL document CHEMBL1201862, “PubChem BioAssay data set” (2004) one finds AC50, IC50 and EC50 data, which are given here for nine compounds.

What is called AC50 is the concentration giving half of the maximal activity seen.

Active and inactive are the calls of the source.

For one series, the target named is Cytochrome P450 3A4 (Homo sapiens, UniProt P08684).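 Further: CYP3A4 tested as one member of a cytochrome P450 panel screen.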
The nature of series [1]: cytotoxicity in MIN6 insulinoma cells, dose response, cytotoxicity control, cell-based, mouse insulinoma (AID 2122).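 Further: confirmatory high-throughput counterscreen run to flag cytotoxic compounds; mouse MIN-6 beta cells carrying an insulin promoter eGFP reporter.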 Format: functional.
Series [2] in a line: insulin promoter down-regulators in MIN6 cells, imaging, high-content screening, mouse beta cells (AID 1628). Format: functional.
Series [3] deals with T1, Kappa-type opioid receptor (Homo sapiens, UniProt P41145). Format: functional.
T1 sequence (P41145 whole entry): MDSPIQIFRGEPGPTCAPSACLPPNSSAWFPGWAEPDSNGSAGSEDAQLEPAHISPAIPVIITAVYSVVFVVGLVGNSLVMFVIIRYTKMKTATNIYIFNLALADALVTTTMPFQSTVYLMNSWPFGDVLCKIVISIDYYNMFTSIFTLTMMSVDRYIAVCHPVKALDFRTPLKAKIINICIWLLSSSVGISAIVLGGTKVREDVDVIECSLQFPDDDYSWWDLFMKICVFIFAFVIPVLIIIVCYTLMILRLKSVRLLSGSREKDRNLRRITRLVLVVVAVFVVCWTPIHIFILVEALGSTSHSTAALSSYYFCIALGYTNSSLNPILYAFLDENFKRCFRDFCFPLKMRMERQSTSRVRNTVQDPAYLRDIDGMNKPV
Series [4] has as its target T1, Kappa-type opioid receptor. The class given is functional. This is another data set of the same source.
Series [5] concerns Streptococcus sp. 'group A'. Briefly: growth inhibition of control SK(-) GAS strain, dose response, counter-screen for streptokinase expression inhibitor project, luminescence, kanamycin, BacTiterGlo, confirmation (AID 1900). Format: functional, organism-based. On the technique in general: The purpose of a counterscreen is to sort out artefacts and off-target activity.
Series [6] has as its system HEK293. Put plainly: NOD2 signaling inhibitors in MDP-stimulated cells, cell-based, uHTS, luminescence (AID 2001). Format: functional. Conditions: Homo sapiens.
Series [7] has as its target T2, Beta-galactosidase (Escherichia coli, UniProt Q8VNN2). Briefly: PubChem AID 485352. Format: functional.
Series [8] concerns the target T3, Delta-type opioid receptor (Homo sapiens, UniProt P41143). Briefly: HTS Image-Based Screen for Antagonists of the DOR Receptor. [Related pubchem assays (depositor defined):AID1777, AID1785, AID1786, AID2133]. Format: functional.
The test system of another series is Streptococcus. Briefly: Group A Streptococcus viability loss, dose response, counter-screen for streptokinase expression inhibitor project, luminescence, BacTiterGlo (AID 1915).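 Further: potency for reduction of bacterial viability or growth.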 The class given is functional, organism-based.
For series [9], the target named is T3, Delta-type opioid receptor. Briefly: HTS Image-Based Screen for Agonists of the DOR Receptor. [Related pubchem assays (depositor defined):AID1777, AID1786, AID2133]. Format: functional.
The target in series [10] is T2, Beta-galactosidase. Format: functional.
Series [11] has as its system HEK293. Put plainly: cells. The class given is functional, cell-based. As to conditions: Homo sapiens.
Another series addresses Mu-type opioid receptor (Homo sapiens, UniProt P35372). Put plainly: HTS Image-Based Screen for Agonists of the MOR Receptor. [Related pubchem assays (depositor defined):AID1777, AID1785, AID1786, AID2133]. The class given is functional.
Series [12] has as its target T4, Type-1 angiotensin II receptor (Homo sapiens, UniProt P30556).
T4 sequence (P30556 whole entry): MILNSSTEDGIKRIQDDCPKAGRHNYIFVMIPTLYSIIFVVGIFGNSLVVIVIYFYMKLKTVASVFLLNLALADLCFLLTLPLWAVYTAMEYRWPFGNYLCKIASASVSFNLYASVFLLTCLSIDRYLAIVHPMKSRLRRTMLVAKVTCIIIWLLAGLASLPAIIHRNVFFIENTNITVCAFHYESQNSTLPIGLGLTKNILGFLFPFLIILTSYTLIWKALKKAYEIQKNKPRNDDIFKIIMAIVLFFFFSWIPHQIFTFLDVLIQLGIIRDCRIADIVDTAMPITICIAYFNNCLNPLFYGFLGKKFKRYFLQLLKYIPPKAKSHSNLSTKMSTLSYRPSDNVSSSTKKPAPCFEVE
Put plainly: AT1 receptor antagonists, dose response, selectivity assay for APJ receptor antagonist project, cell-based, uHTS hits (AID 463214).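 Further: antagonist potency against angiotensin II stimulated AT1 response.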 Format: functional.

In series [13] the test system is HEK293. Put plainly: NOD1 signaling inhibitors, primary screen, cell-based, luminescence, uHTS (AID 1578). Format: functional. As to conditions: Homo sapiens.
In series [14] the test system is HEK293. Briefly: cells. As to conditions: Homo sapiens. Format: functional, cell-based. This is another data set of the same source.
For series [15], the target named is T5, Corticotropin-releasing factor receptor 2/Corticotropin-releasing factor-binding protein (Homo sapiens, UniProt P24387+Q13324).
T5 sequence (Q13324 whole entry): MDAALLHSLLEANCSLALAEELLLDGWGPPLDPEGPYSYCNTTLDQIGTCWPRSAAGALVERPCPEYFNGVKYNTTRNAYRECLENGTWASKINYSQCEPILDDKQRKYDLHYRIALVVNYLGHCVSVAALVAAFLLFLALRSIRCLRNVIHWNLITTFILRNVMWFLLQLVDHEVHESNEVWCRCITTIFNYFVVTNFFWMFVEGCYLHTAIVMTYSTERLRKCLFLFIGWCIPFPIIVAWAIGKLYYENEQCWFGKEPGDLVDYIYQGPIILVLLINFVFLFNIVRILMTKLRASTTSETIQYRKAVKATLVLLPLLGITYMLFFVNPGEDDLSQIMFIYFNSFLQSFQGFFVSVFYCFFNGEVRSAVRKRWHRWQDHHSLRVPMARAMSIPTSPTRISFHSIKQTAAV
T5 sequence (P24387 whole entry): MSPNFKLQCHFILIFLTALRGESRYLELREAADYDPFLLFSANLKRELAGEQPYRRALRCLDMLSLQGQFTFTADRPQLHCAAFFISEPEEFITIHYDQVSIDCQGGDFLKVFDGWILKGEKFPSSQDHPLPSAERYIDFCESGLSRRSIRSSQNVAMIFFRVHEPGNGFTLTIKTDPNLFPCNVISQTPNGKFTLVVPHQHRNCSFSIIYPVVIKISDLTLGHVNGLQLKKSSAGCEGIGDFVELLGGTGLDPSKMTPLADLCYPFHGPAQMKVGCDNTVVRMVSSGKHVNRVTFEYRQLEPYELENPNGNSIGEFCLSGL
Put plainly: Dose Response confirmation of uHTS hits for small molecule antagonists of the CRF-binding protein and CRF-R2 receptor complex. The class given is functional. Conditions: read-out: IC50_Mean.

For series [16], the target named is T5, Corticotropin-releasing factor receptor 2/Corticotropin-releasing factor-binding protein. Put plainly: activators of CRF receptor 2 with binding protein – uHTS hits, confirmation (AID 602473). Format: functional. As to conditions: read-out: EC50_Mean.
Series [17] can be described thus: CRF-BP/CRF-R2 complex antagonists, dose response, cell-based, uHTS hits, 384-well (AID 651639). The class given is functional, Homo sapiens. Conditions: read-out: IC50_Mean.
Series [18] addresses G-protein coupled receptor 55 (Homo sapiens, UniProt Q9Y2T6). Put plainly: GPR55 antagonists, SAR follow-up, counter-screen for GPR35 antagonist project, imaging, image-based (AID 2397). The class given is functional.
Series [19] has as its target T6, Mannose-6-phosphate isomerase (Homo sapiens, UniProt P34949).
T6 sequence (P34949 whole entry): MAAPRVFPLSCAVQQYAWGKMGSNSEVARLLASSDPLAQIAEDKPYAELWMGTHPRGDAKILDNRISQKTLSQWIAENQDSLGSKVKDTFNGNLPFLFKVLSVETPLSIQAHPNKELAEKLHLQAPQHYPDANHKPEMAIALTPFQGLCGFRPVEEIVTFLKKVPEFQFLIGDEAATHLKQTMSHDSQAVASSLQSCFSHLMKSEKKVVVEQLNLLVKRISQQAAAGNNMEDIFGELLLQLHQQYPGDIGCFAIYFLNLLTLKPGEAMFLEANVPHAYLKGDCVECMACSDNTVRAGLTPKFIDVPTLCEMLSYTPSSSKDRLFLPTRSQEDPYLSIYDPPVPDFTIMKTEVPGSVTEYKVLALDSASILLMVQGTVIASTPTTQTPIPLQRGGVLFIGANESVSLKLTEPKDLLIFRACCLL
Briefly: human PMI inhibitors, high substrate, primary screen, biochemical, fluorescence intensity, high mannose 6-phosphate (AID 1220).

The target of series [20] is Glucose-6-phosphate 1-dehydrogenase (Homo sapiens, UniProt P11413). Briefly: human G6PD enzyme inhibitors, dose response, selectivity assay for P. falciparum G6PD inhibitor project, biochemical, fluorescence (AID 504792). The class given is functional.
Glucose-6-phosphate 1-dehydrogenase, sequence (P11413 whole entry): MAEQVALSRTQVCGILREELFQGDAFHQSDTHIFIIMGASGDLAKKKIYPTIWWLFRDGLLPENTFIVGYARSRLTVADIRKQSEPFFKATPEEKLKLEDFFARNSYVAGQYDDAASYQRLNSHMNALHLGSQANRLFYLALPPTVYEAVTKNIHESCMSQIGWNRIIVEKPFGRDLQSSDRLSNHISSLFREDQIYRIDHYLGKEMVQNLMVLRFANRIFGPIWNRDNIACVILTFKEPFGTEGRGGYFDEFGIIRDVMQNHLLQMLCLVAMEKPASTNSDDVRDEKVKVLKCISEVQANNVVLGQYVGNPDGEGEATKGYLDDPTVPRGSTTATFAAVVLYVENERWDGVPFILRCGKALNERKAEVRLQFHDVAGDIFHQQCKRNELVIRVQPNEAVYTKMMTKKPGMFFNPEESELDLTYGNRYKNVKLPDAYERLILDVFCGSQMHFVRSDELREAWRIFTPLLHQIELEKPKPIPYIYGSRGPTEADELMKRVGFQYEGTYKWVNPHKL
For the next series, the target named is Phosphomannomutase 2 (Homo sapiens, UniProt O15305). Put plainly: Counter screen SAR assay for PMM2 inhibitors via a fluorescence intensity assay. [Related pubchem assays (depositor defined):AID1545, AID1574].
Phosphomannomutase 2, sequence (O15305 whole entry): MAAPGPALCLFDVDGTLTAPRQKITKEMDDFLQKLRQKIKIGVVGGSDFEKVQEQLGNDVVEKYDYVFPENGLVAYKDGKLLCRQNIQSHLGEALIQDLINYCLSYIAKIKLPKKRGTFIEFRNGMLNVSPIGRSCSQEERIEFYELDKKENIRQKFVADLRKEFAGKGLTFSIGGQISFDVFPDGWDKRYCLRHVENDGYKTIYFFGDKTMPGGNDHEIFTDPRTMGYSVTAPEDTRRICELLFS
Series [21] concerns the target T6, Mannose-6-phosphate isomerase. Put plainly: PMI enzyme inhibitors, confirmation, biochemical, fluorescence intensity (AID 1535).
A further series has as its target Cytochrome P450 2C19 (Homo sapiens, UniProt P33261). Put plainly: Cytochrome panel assay with activity outcomes. Panel member name: p450-cyp2c19 Compounds with AC50 equal or less than 10 uM are considered active. The class given is functional.
The target in a further series is T7, Cytochrome P450 1A2 (Homo sapiens, UniProt P05177).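 Further: PubChem cytochrome P450 panel assay, CYP1A2 panel member.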
T7 sequence (P05177 whole entry): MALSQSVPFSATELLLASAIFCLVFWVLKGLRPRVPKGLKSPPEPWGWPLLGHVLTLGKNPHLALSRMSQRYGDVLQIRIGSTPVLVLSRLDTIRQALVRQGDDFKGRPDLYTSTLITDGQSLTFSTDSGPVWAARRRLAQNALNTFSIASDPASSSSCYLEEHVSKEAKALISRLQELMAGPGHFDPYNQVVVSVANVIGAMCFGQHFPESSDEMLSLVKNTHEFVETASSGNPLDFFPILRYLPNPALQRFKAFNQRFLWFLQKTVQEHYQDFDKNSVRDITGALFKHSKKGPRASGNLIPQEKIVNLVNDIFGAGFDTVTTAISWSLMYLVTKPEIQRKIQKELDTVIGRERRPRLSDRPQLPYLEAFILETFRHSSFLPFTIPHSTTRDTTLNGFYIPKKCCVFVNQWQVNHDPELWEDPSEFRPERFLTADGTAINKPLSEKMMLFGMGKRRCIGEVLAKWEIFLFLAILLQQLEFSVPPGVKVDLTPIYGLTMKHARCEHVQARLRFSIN

T3 sequence (P41143 whole entry): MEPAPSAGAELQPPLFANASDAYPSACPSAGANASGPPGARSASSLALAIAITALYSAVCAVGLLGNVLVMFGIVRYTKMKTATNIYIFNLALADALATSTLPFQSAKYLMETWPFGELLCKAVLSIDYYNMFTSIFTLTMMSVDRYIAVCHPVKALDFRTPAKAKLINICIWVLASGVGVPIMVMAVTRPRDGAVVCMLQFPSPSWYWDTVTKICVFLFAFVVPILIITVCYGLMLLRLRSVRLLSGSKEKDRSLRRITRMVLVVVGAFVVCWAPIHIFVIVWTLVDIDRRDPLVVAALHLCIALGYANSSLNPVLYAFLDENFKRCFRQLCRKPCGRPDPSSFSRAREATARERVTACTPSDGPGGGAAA
Cytochrome P450 3A4, sequence (P08684 whole entry): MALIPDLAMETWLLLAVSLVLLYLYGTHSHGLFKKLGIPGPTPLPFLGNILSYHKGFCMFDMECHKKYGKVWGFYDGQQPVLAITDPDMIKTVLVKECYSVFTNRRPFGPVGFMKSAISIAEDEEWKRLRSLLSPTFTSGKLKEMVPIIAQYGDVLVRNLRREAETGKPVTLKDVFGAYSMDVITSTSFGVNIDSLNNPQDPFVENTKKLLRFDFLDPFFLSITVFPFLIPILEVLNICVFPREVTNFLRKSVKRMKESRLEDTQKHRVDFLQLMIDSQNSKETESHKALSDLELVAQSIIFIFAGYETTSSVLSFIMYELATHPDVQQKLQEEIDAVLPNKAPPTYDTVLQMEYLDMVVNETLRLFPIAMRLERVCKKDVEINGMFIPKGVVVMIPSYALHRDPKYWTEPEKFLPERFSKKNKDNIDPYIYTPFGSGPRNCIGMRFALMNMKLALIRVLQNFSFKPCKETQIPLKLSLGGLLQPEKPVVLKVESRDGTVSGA
T2 sequence (Q8VNN2 whole entry): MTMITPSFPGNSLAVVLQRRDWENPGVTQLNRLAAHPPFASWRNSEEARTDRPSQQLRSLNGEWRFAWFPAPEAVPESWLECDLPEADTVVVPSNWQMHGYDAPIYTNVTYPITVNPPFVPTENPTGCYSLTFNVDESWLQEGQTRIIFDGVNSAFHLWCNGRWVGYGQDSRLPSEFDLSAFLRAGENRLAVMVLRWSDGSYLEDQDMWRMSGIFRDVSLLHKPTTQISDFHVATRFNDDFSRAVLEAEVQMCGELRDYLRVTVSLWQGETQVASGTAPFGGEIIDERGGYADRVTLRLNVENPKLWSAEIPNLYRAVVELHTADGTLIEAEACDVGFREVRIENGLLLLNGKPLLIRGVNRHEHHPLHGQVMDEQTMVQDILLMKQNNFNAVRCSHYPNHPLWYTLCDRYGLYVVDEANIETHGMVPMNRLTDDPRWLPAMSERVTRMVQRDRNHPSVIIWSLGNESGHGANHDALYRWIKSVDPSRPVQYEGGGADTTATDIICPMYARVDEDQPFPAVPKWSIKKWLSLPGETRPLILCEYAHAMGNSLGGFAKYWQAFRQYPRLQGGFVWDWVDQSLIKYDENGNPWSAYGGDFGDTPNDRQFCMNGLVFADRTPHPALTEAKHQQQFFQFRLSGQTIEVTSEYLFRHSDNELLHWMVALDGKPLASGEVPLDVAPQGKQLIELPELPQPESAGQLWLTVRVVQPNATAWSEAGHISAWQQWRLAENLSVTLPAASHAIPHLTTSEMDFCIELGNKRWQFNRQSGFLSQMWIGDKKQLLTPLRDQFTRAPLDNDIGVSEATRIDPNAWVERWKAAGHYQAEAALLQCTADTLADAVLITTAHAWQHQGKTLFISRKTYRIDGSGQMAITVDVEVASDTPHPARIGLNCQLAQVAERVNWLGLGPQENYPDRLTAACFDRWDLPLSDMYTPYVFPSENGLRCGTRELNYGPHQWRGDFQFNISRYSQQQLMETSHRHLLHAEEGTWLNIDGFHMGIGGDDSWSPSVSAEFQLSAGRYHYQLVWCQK
Mu-type opioid receptor, sequence (P35372 whole entry): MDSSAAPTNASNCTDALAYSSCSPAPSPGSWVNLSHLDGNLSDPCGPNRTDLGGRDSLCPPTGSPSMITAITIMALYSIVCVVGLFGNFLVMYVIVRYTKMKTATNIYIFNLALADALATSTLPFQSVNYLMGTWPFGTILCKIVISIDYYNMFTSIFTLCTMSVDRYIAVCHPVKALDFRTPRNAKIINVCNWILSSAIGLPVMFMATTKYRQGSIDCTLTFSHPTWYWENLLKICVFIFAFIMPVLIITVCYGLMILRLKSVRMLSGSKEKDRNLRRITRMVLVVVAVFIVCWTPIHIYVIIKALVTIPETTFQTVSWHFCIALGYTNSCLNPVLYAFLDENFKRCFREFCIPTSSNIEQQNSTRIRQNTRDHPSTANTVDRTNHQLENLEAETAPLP
G-protein coupled receptor 55, sequence (Q9Y2T6 whole entry): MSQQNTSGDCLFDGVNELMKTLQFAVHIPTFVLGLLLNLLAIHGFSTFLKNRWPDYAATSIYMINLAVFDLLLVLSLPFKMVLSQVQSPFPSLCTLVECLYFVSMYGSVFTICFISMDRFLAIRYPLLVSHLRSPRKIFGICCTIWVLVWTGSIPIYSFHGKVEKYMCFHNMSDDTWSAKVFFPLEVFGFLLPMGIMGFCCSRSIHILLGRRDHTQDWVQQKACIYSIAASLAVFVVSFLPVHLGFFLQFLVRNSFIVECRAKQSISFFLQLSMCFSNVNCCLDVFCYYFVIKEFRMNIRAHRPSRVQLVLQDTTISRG
Cytochrome P450 2C19, sequence (P33261 whole entry): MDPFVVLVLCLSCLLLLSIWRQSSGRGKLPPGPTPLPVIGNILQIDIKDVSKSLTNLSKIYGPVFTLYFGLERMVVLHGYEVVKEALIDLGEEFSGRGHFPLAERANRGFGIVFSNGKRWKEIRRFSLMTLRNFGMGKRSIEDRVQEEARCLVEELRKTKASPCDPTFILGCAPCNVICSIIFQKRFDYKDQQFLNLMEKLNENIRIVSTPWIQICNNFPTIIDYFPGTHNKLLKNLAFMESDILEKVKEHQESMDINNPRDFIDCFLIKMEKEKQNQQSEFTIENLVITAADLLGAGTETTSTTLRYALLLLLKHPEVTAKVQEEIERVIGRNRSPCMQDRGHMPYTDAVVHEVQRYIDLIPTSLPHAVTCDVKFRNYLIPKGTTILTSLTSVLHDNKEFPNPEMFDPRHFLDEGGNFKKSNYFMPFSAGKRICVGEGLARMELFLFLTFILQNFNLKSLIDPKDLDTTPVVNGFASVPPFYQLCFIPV

For the compound `COc1ccccc1C(=O)N1CCN(c2ccccn2)CC1`, at Cytochrome P450 3A4, the half-maximal activity concentration (AC50) entry is listed as “inconclusive”.

In the case of `COc1ccc(OC)c(-c2csc(NC(=O)c3ccc(OCC4CCCO4)cc3)n2)c1` (configuration not stated), the figures for the IC50 in series [1] and in [2] were 2.19 µM (active) and 2.4 µM (active), respectively.

For `COc1cccc(/C=C/c2ccc3cccc(O)c3n2)c1OC`, the IC50 in [3] is greater than 32 µM; in [4] it was > 31.5 µM (inactive); in the series on HEK293 [6], 5.45 µM (inactive); in [8] it was > 32 µM (inactive); in the series with HEK293 [11] it was > 20 µM (inactive); in [12], 15.6 µM (active). In the series with HEK293 [14], the IC50 is 10.6 µM (active). The EC50 in [5] was 1.68 µM (active); at Beta-galactosidase [7], > 40 µM (inactive); in the series on Streptococcus, 7.81 µM (active); in series [9], > 32 µM (inactive); at Beta-galactosidase [10], > 31.5 µM (inactive); at Mu-type opioid receptor, > 32 µM (inactive). In addition, in the series with HEK293 [13], the EC50 was > 20 µM (inactive).

Take `c1ccc2c(c1)OCCOCCOCCOCCOCCOc1ccccc1OCCOCCOCCO2`: the IC50 in [15] was 2.76 µM (active); in series [17], 10.4 µM (active); in series [1], 5.48 µM (active); in [2] it was 2.89 µM (active). For the same compound, the EC50 in series [16] is 12.5 µM (active).

With `Cc1ccc(C)c(OCCC(=O)NCCc2ccc(S(N)(=O)=O)cc2)c1`, the IC50 in series [18] was > 32 µM (inactive).

With `COc1ccc(-n2c(=S)[nH]c3c(sc(=S)n3-c3ccccc3)c2=O)c(OC)c1`, the IC50 in series [19] is 37.6 µM (active); in series [20] it was > 80 µM (inactive).

In the case of `Clc1ccc(/N=c2\ssnc2Cl)cc1Cl`, the IC50 is 88.6 µM (active) on Phosphomannomutase 2 and 16.9 µM (active) in series [21].

Consider `Cc1cc(-n2sc3ccccc3c2=O)c2ccccc2n1`, for which the values for the IC50 (on Phosphomannomutase 2; in [21]) were > 100 µM (inactive) and > 50 µM (inactive), respectively.

Consider `c1cncc(-c2cccnc2)c1`, for which the half-maximal activity concentration (AC50) result is “inconclusive” on Cytochrome P450 3A4, “inconclusive” on Cytochrome P450 2C19 and 15.8 µM (inconclusive) on Cytochrome P450 1A2.
